Source: US5243042A, “1-thiaguanosine and process for preparing oxanosine and 1-thiaguanosine” (Hoffmann-La Roche Inc., priority 1990, dated 1993)
In brackets after ≈: the same amount, converted by molar mass.

Key:
Experiment in all cases: MIC by agar dilution method, minimal agar medium
Assay type in all cases: cell-based
E. coli 94 = details: Escherichia coli, over-night incubation at 36° C., read-out: MIC (minimum inhibitory concentration)
Method: (§1) To avoid possible antimetabolite reversal, a minimal agar medium^2 was employed. Inoculum was grown over-night at 36° C. in minimal broth medium and diluted a hundred-fold before use. Agar plates containing a serial dilution of the compounds of formula Ia were inoculated using a Steer's replicator. Approximately 3 μL was applied per spot. MICs were recorded after over-night incubation at 36° C.
(§2) ^1 Barry, A. L., Procedure for Testing Antimicrobial Agents in Agar Media: Theoretical Considerations, p. 1-26. In Victor Lorian (Ed.), Antibiotics in Laboratory Medicine, 2nd ed. The Williams & Wilkins Co., Baltimore.
(§3) ^2 Davis, B. D.; Mingioli, E. S. J. BACTERIOL. 1950, 60, 17-28.
(§4) The minimum inhibitory concentrations of 1-thiaguanosine, the compound of formula Ia, against various bacteria were as follows: […]

[1] = system: S. typhimurium ATTC 13311; details: Salmonella enterica, over-night incubation at 36° C., read-out: MIC (minimum inhibitory concentration)
Method: as §1, §2, §3, §4

E. coli 257 = details: Escherichia coli, over-night incubation at 36° C., read-out: MIC (minimum inhibitory concentration)
Method: as §1, §2, §3, §4

S. typhimurium LT-2 = details: Salmonella enterica, over-night incubation at 36° C., read-out: MIC (minimum inhibitory concentration)
Method: as §1, §2, §3, §4

E. coli B = details: Escherichia coli, over-night incubation at 36° C., read-out: MIC (minimum inhibitory concentration)
Method: as §1, §2, §3, §4

Prov. rettgeri ATTC 9250 = details: Providencia rettgeri, ATTC9250, over-night incubation at 36° C., read-out: MIC (minimum inhibitory concentration)
Method: as §1, §2, §3, §4

E. coli 2721B = details: Escherichia coli, over-night incubation at 36° C., read-out: MIC (minimum inhibitory concentration)
Method: as §1, §2, §3, §4

E. coli ATCC 25922 = details: Escherichia coli, ATCC25922, over-night incubation at 36° C., read-out: MIC (minimum inhibitory concentration)
Method: as §1, §2, §3, §4

**Q.** For Nc1nc2c(ncn2[C@@H]2O[C@H](CO)[C@@H](O)[C@H]2O)c(=O)s1 [1-thiaguanosine, 5-amino-3-(β-D-ribofuranosyl)imidazo[4,5-d][1,3]thiazin-7(3H)-one], which MIC (E. coli 94) is on record?
**A.** 32 µg/mL (≈ 107 µM)

**Q.** And the MIC [1]?
**A.** 8 µg/mL (≈ 26.6 µM)

**Q.** And the MIC (E. coli 257)?
**A.** 16 µg/mL (≈ 53.3 µM)

**Q.** What about the MIC (S. typhimurium LT-2) of the same molecule?
**A.** 8 µg/mL (≈ 26.6 µM)

**Q.** What about the MIC (E. coli B) of the same molecule?
**A.** 128 µg/mL (≈ 426 µM)

**Q.** What about the MIC (Prov. rettgeri ATTC 9250) of the same molecule?
**A.** 4 µg/mL (≈ 13.3 µM)

**Q.** What about the MIC (E. coli 2721B) of the same molecule?
**A.** 128 µg/mL (≈ 426 µM)

**Q.** And the MIC (E. coli ATCC 25922)?
**A.** 128 µg/mL (≈ 426 µM)
